Consider 10 substances from US12492223B2, “Peptide compositions capable of binding lanthionine synthetase C-like protein (LanCl) and uses thereof” (priority 2021, dated 2025).

Several values for one entry are separate records, joined by “and”; a condition that tells them apart may be missing. Equal entries are not always repeated. Where two headings read alike, the source gives them in different places. Positions of bridges follow the written chain, without caps; N, C: chain ends. No end group written: not given here.

One assay concerns A549 cells. Briefly: A549 proliferation + stress assay (restoration of viability of Taxol-treated cells, CellTiter-Glo). The note with it: for Estimated Activity in A549 proliferation + stress assay: 350 μM Taxol, 16 hours, peptide 1-100 μM; for restoration of A549 viability: Taxol-treated A549 cells. The arrangement: key to Estimated Activity in A549 proliferation + stress assay: Inactive: no activity up to 100 μM; WEAK: some or variable restoration of cell viability at 50-100 μM; MODERATE: moderate dose-dependent restoration of cell viability at >25 μM; STRONG: clear dose-dependent restoration of cell viability from 1-5 μM upwards. It counts as cell-based, human. Here is the method: An assay was developed that involves stressing cells with a dose of the chemotherapeutic agent, Taxol, that causes a 50% inhibition of cell viability when compared to untreated cells. Peptides were then added to the cell cultures at increasing concentrations to assess their ability to restore the viability of the Taxol-treated cells.
Briefly, A549 cells were cultured in opaque-walled multiwell plates with 50000 A549 cells/well in culture medium (DMEM medium ref 11960-044 Thermoscientific, +10% FBS ref 10270-106 Gibco, Thermoscientific, +1% Na pyruvate ref S8636-100 ML, Sigma, +1%, Glutamax ref35050061, Thermoscientific, +1% Penicillin-Streptomycin, ref 11074440001, Sigma) 100 μl per well for 96-well plates. Control wells containing medium without cells were used to obtain a value for background luminescence. Cells were incubated at 37° C. in 5% CO2 overnight.
100 μL of medium+DMSO+peptides or medium+Taxol+peptides (at the different concentrations) were added to each well and incubated for 16 hours at 37° C. 5% CO2.
Cell morphology, viability and confluency were assessed by phase contrast microscopy. The CellTiter-Glo® Luminescent Cell Viability Assay (G7571, Promega—a homogeneous method to determine the number of viable cells in culture based on quantitation of the ATP present) was then used to quantify the number of metabolically active cells, according to the manufacturer's instructions. 100 μl volume of CellTiter-Glo® Reagent was added to the 100 μL volume of cell culture medium present in each well, Contents were mixed for 2 minutes on an orbital shaker to induce cell lysis and after incubating the plates at room temperature for 10 minutes to stabilize luminescent signal luminescence was recorded with an integration time of 0.5 seconds using a CLARIOstar multi well luminometer (BMG Labtech)

The next assay relates to HKx31 (H3N2). It counts as in vivo, mice. The arrangement: key to PMN activity score / Viral titre activity score / BAL IL-6 activity score: 0: inactive; 1: less active than the peptide of SEQ ID NO:38; 2: comparable or more active than the peptide of SEQ ID NO:38. The note with it: for IL-6 levels in the BAL fluid / viral titres: 10 mg/kg single dose.
For the next assay, the system named is Chung model rats. Briefly: In vivo model of neuropathic pain (II): spinal nerve ligation (Chung) model, paw withdrawal threshold. The arrangement: species or system rat. The note with it: mean ± SEM, n=6. How it is done: The spinal nerve ligation (Chung) model was prepared as described in Example 4, above. Briefly, sixty-four adult male Sprague-Dawley rats, 8-9 weeks old, weighing 250-350 g at the time of surgery, were purchased from Charles River UK Ltd. The animals were housed in groups of 4 in an air-conditioned room on a 12-hour light/dark cycle. Food and water were available ad libitum. Animals were allowed to acclimatise to the environment for experiments for three days by leaving them on a raised metal mesh for at least 40 minutes. The baseline paw withdrawal threshold (PWT) was examined using a series of graduated von Frey hairs for 3 consecutive days before surgery and re-assessed on the 7th day after surgery and on the 12th to 14th day after surgery before drug dosing.
Each rat was anaesthetized with 5% isoflurane mixed with oxygen (2 L per min) followed by an intramuscular (i.m.) injection of ketamine 60 mg/kg plus xylazine 10 mg/kg. The back was shaved and sterilized with povidone-iodine. The animal was placed in a prone position and a para-medial incision was made on the skin covering the L4-6 level. The L5 spinal nerve was carefully isolated and tightly ligated with 6/0 silk suture. The wound was then closed in layers after a complete haemostasis. A single dose of antibiotics (Amoxipen, 15 mg/rat, i.p.) was routinely given for prevention of infection after surgery. The animals were placed in a temperature-controlled recovery chamber until fully awake before being returned to their home cages.
Animals with validated neuropathic pain state were randomly divided into 4 experimental groups: Vehicle (5% DMSO first then in 0.9% saline), 3 mg/kg LAT9997, 3 mg/kg LAT9997×1, and 3 mg/kg LAT1233×1. Each group contained 6 animals.
RSVEGS (SEQ ID NO:9; LAT9997), SVEGS (SEQ NO: 62; LAT9997×1) and ALNSS (SEQ ID NO:63; LAT1233×1) were dissolved in 5% DMSO first then in 0.9% saline, which also served as the vehicle control. All compounds were provided from GenScript for Lateral Pharma. All vehicle/compounds were administrated intravenously at 1 ml/kg body weight.
The animals were placed in individual Perspex boxes on a raised metal mesh for at least 40 min. Starting from the filament of lowest force (1 gram (g)), each vFH filament was applied perpendicularly to the centre of the ventral surface of the paw until it slightly bent for 6 seconds. If the animal withdrew or lifted its paw upon stimulation, a filament with force immediately lower than that tested was used. If no response was observed, a filament with force immediately higher was then tested. The lowest amount of force required to induce reliable responses (positive in 2 out of 3 trials) was recorded as the value of the PWT.
PWT was assessed once daily for three days before surgery (pre D1, Pre D2 and D0) and on day 7 following surgery for monitoring the development of mechanical allodynia.
All drug tests were carried out on the 13th to 17th day after surgery. […]
One-way analysis of variance (ANOVA) (IBM statistics SPSS, Version 27) was used for statistical analysis to compare PWT of different groups at the same time points. When appropriate, Fisher's Least Significant Difference (LSD) post-hoc test was used to compare drug treatment groups to the control groups. A paired Student's t-test (Microsoft Excel 365) was used to compare values of different time points in the same group. To characterise the drug-induced change in PWT relative to vehicle, vehicle values were subtracted from the appropriate drug values. The significance level was set at P<0.05.

Where [1] appears, read: 1 hour after 3 mg/kg intravenously, listed as LAT1233x1.
[2] abbreviates: 1 hour after 3 mg/kg intravenously, listed as LAT1233×1.
[3] abbreviates: 2 hours after 3 mg/kg intravenously, listed as LAT1233x1.
The mark [4] stands for this setting: 2 hours after 3 mg/kg intravenously, listed as LAT1233×1.
Setting [5] is: 4 hours after 3 mg/kg intravenously, listed as LAT1233x1.
Where [6] appears, read: 4 hours after 3 mg/kg intravenously, listed as LAT1233×1.
[7] abbreviates: Pre-dosing, 3 mg/kg group, listed as LAT1233x1, 3 mg/kg.
The mark [8] stands for this setting: Pre-dosing, 3 mg/kg group, listed as LAT1233×1, 3 mg/kg.
The mark [9] stands for this setting: 1 hour after 3 mg/kg intravenously, listed as LAT9997.
Setting [10] is: 2 hours after 3 mg/kg intravenously, listed as LAT9997.
Setting [11] is: 4 hours after 3 mg/kg intravenously, listed as LAT9997.
Setting [12] is: Pre-dosing, 3 mg/kg group, listed as LAT9997, 3 mg/kg.
[13] abbreviates: 1 hour after 3 mg/kg intravenously.
Setting [14] is: 2 hours after 3 mg/kg intravenously.
The mark [15] stands for this setting: 4 hours after 3 mg/kg intravenously.

Consider “8 (CSGRVSECGF; disulfide 1-8) [compound 8]”, for which, in the assay on A549 cells, the “Estimated Activity in A549 proliferation + stress assay” value (shortened to “Estimated Activity”) is given as “Inactive”.
Take 9 (RSVEGS) [compound 9]: the “IL-6 levels in the BAL fluid” value in the assay with HKx31 (H3N2) is reported as “as effective”. In the assay on HKx31 (H3N2) (day 3), the viral titres result is “effective”. Besides, in the assay with HKx31 (H3N2) (mouse, in vivo, 10 mg/kg), the “BAL IL-6 activity score” value was 2, the PMN activity score is on record as 2 and the “Viral titre activity score” value turned out to be 2. For the same substance, in the assay on HKx31 (H3N2) (single 10 mg/kg dose), the “reducing the PMN infiltrate in BAL fluid, compared with the peptide of SEQ ID NO:38” value is on record as “as effective”. Further, in the assay on A549 cells, the “Estimated Activity” value is given as “STRONG (clear dose-dependent restoration of cell viability from 1-5 μM upwards)” and the “restoration of A549 viability” value is “restored the Taxol-induced loss of cell viability”.
Turning to 11 (SCRSRPVESSC) [compound 11], in the assay on A549 cells, the “Estimated Activity” value was “Inactive” and the “restoration of A549 viability” value was “did not”.
In the case of 42 (KALPRS) [compound 42], the “IL-6 levels in the BAL fluid” value in the assay with HKx31 (H3N2) is “as effective”. Also, the viral titres result with HKx31 (H3N2) (day 3) was “effective”. Also, in the assay with HKx31 (H3N2) (mouse, in vivo, 10 mg/kg), the “BAL IL-6 activity score” value turned out to be 2, the PMN activity score was 2 and the “Viral titre activity score” value was found to be 2. Besides, the “reducing the PMN infiltrate in BAL fluid, compared with the peptide of SEQ ID NO:38” value with HKx31 (H3N2) (single 10 mg/kg dose) is “as effective”. Further, in the assay with A549 cells, the “Estimated Activity” value is recorded as “STRONG (clear dose-dependent restoration of cell viability from 1-5 μM upwards)” and the “restoration of A549 viability” value is “partially restore A549 viability”.
For the substance 59 (RALNS) [compound 59], in the assay with HKx31 (H3N2) (mouse, in vivo, 10 mg/kg), the “BAL IL-6 activity score” value worked out at 2, the PMN activity score was 2 and the “Viral titre activity score” value came out at 2. In addition, the “Estimated Activity” value in the assay with A549 cells is given as “WEAK-MODERATE”.
Consider 60 (RALN) [compound 60], for which, in the assay with HKx31 (H3N2) (mouse, in vivo, 10 mg/kg), the “BAL IL-6 activity score” value amounted to 2, the PMN activity score is on record as 2 and the “Viral titre activity score” value was 2. In addition, in the assay on A549 cells, the “Estimated Activity” value is on record as “WEAK (some or variable restoration of cell viability at 50-100 μM)”.
Take 63 (ALNSS) [compound 63]: the “Viral titre activity score” value in the assay on HKx31 (H3N2) (single 10 mg/kg dose, day 3, relative to SEQ ID NO:38) stood at 0. Besides, the “Estimated Activity” value with A549 cells is on record as “MODERATE (moderate dose-dependent restoration of cell viability at >25 μM)”.
As for ALNSS [SEQ ID NO: 63], the “contralateral Paw withdrawal threshold” value with Chung model rats (setting [1]) is 15.00 ± 0.00 g; in the assay on Chung model rats (setting [2]), 15.00 ± 0.00 g; with Chung model rats (setting [3]), 14.17 ± 0.83 g; in the assay with Chung model rats (setting [4]), 14.17 ± 0.83 g; in the assay with Chung model rats (setting [5]), 15.00 ± 0.00 g; in the assay on Chung model rats (setting [6]), 15.00 ± 0.00 g. Besides, the “contralateral Paw withdrawal threshold” value in the assay on Chung model rats (setting [7]) and in the assay on Chung model rats (setting [8]) was 15.00 ± 0.00 g throughout. Besides, the “ipsilateral Paw withdrawal threshold” value was 10.67 ± 1.67 ▴** g in the assay on Chung model rats (setting [1]); 10.67 ± 1.67 g in the assay on Chung model rats (setting [2]); 11.50 ± 1.80 ▴** g with Chung model rats (setting [3]); 11.50 ± 1.80 g with Chung model rats (setting [4]); 10.17 ± 1.17 ▴** g in the assay on Chung model rats (setting [5]); 10.17 ± 1.17 g in the assay on Chung model rats (setting [6]). Besides, the “ipsilateral Paw withdrawal threshold” value in the assay with Chung model rats (setting [7]) and with Chung model rats (setting [8]) was 3.33 ± 0.42 g in each case.
As for RSVEGS [SEQ ID NO: 9], the “contralateral Paw withdrawal threshold” value in the assay on Chung model rats (setting [9]) was 15.00 ± 0.00 g; in the assay with Chung model rats (setting [10]), 15.00 ± 0.00 g; in the assay on Chung model rats (setting [11]) it was 15.00 ± 0.00 g; in the assay with Chung model rats (setting [12]), 14.17 ± 0.83 g. The “ipsilateral Paw withdrawal threshold” value in the assay on Chung model rats (setting [9]) was 7.83±1.72 g and 7.83 ± 1.72 ^ g; in the assay on Chung model rats (setting [10]), 9.67±1.73 g and 9.67 ± 1.73 ▴* g; in the assay with Chung model rats (setting [11]), 8.17±1.60 g and 8.17 ± 1.60 ^ g; in the assay on Chung model rats (setting [12]), 3.33 ± 0.42 g.
In the case of SVEGS [SEQ ID NO: 62], the “contralateral Paw withdrawal threshold” value is on record as 15.00 ± 0.00 g in the assay with Chung model rats (setting [13]); 15.00 ± 0.00 g with Chung model rats (setting [14]); 15.00 ± 0.00 g in the assay on Chung model rats (setting [15]); 15.00 ± 0.00 g in the assay with Chung model rats (Pre-dosing, 3 mg/kg group). Also, the “ipsilateral Paw withdrawal threshold” value with Chung model rats (setting [13]) is listed as 11.17 ± 1.74 ▴** g; with Chung model rats (setting [14]) it was 12.67 ± 1.56 ▴*** g; in the assay on Chung model rats (setting [15]) it was 11.00 ± 1.41 ▴** g; with Chung model rats (Pre-dosing, 3 mg/kg group) it was 3.33 ± 0.42 g.
